Measurements reported in patent US12042492B2 (priority 2020, dated 2024).
“Also recorded” adds a separate entry of the source.

How the values were obtained:
Format in all cases: cell-based, mouse
mAPP N2a cells [1] = experiment: Immunofluorescence analysis of BACE1, 6E10 and CTF; conditions: ligand 1-treated mAPP N2a cells relative to untreated mAPP N2a cells, P=0.01
Experimental: Immunofluorescence analysis of BACE1, 6E10 and CTF. To determine the effect of ligand 1 on BACE1, 6E10 and C-terminal fragments, immunofluorescence analysis was performed on four different groups of cells: 1) untreated N2a cells versus; 2) N2a+ligand 1; 3); cells transfected with mAPP and 4) mAPP+ligand 1.
Immunofluorescence analysis of BACE1, 6E10 and CTF. To determine BACE1, 6E10, CTF inhibition, mitochondrial network, immunofluorescence analysis was performed using mutant AβPP cells and untransfected N2a and TOM20 antibody as described in (35). The fixed cells were washed with warm PBS, fixed in freshly prepared 4% paraformaldehyde in PBS for 10 minutes, then washed with PBS and permeabilized with 0.1% Triton-X100 in PBS. They were blocked with a 1% blocking solution (Invitrogen) for 1 hour at room temperature. All sections were incubated overnight with TOM20 antibody (1:250 dilution). After incubation, the cells were washed 3 times with PBS, for 10 minutes each. The cells were incubated with a secondary antibody conjugated with Fluor 488 (Invitrogen) for 1 hour at room temperature. The cells were washed 3 times with PBS and mounted on slides. Photographs were taken with a multiphoton laser scanning microscope system (ZeissMeta LSM510). To quantify the immunoreactivity of TOM20 antibody for each treatment, 10-15 photographs were taken at ×40 magnifications, and statistical significance was assessed, using one-way ANOVA for TOM20 protein.

N2a cells [2] = experiment: Cell viability (MTT assay) in N2a cells; conditions: ligand treated N2a cells relative to untreated cells; P=0.038
Experimental: (§1) The N2a cells grown for 6 days in a serum-free medium (1:1 mixture of DMEM and OptiMEM, plus penicillin and streptomycin (Invitrogen, Carlsbad, CA, USA) until the cells developed neuronal processes. As shown in (FIG. 10), these cells were used for 4 groups—one control group and 3 treatment groups. 1) untreated N2a cells (the control group), 2) N2a cells treated with ligand 1 (N2a+ligand 1), 3) N2a cells transfected mAPP with the (lipofectamine) (20 μM final concentration for 6 hrs (mAPP), 4) N2a cells transfected with mAPP cDNA for 6 hrs, treated with ligand 1 (mAPP+ligand 1 treatment group), N2a cells treated with ligand 1 for 24 hrs and then treated with the mAPP cDNA for 6 hrs (ligand 1+mAPP treatment group). As shown in (FIG. 10), the inventors performed 4 independent cell cultures and treatments for all experiments (n=4).
(§2) Cell viability and apoptotic cell death MTT assay. Ligand 1 treated N2a cells, cell based apoptosis assay was performed using Cellometer Vision CBA Image Cytometry System (Nexcelom Bioscience LLC, Lawrence, MA) with two fluorophore Annexin V-FITC and Propidium Iodide (PI) staining solution, according to manufacturer's instructions. Briefly, cells were harvested using trypsin, then spin down at 300 g for three minutes and pellets were washed with 1×PBS, cells were counted using hematocytometer. […]

mAPP N2a cells [3] = experiment: Immunoblotting analysis of protein levels in mAPP N2a cells; conditions: immunoblot; for Nrf1 protein level / Nrf2 protein level: P=0.004
[4] = system: mAPP transfected N2a cells; experiment: Cell viability / apoptotic cell death in mAPP transfected N2a cells
Experimental: as §1, §2

N2a cells [5] = experiment: Transmission electron microscopy of mitochondrial number and length; conditions: TEM
Source text: Transmission electron microscopy. To determine the effects of ligand 1 on the number and length of mitochondria, the inventors used transmission electron microscopy on cells with untreated N2a cells, […], mAPP, and mAPP+ligand 1.
Transmission electron microscopy of mitochondria. To determine the protective effects ligand 1 the number and morphology of mitochondria and the rescue effects of Ligand 1, on Aβ induced mitochondrial toxicity. The inventors conducted transmission electron microscopy (TEM) of N2a cells from control and experimental treatments (n=4). Treated and untreated N2a cells were fixed in 100 mM sodium cacodylate (pH 7.2), 2.5% glutaraldehyde, 1.6% paraformaldehyde, 0.064% picric acid, and 0.1% ruthenium red. They were gently washed and post-fixed for 1 hr in 1% osmium tetroxide plus […] potassium ferricyanide, in 100 mM sodium cacodylate, pH 7.2. After a thorough rinsing in water, the N2a cells were dehydrated, infiltrated overnight in 1:1 acetone:Epon 812, infiltrated for 1 hr with 100% Epon 812 resin, and embedded in the resin. After polymerization, 60- to 80-nm thin sections were cut on a Reichert ultramicrotome and stained for 5 min in lead citrate. […] The numbers of mitochondria were counted in the control N2a cells (number of cells=50) and experimental groups (number of cells per group=40), and statistical significance was determined, using one-way ANOVA.

[6] = mAPP+ligand 1 relative to mAPP cells, P=0.001
[7] = mAPP+ligand 1 relative to mAPP cells, P=0.002, listed as ligand 1
[8] = mAPP+ligand 1 relative to mAPP cells, listed as ligand 1
[9] = mAPP+ligand 1 relative to mAPP cells, listed as ligand1
[10] = mAPP+ligand 1 relative to mAPP cells, P=0.01, listed as ligand 1
[11] = mAPP+ligand 1 relative to mAPP cells, P=0.01, listed as ligand1
[12] = mAPP+ligand 1 relative to mAPP cells, P=0.02

Substance: [(6As,8S,10aS,12aS)-10a, 12a-dimethyl-2-oxo-3,4,4a,4b,5,6,6a,7,8,9,10,10b,11,12-tetradecahydro-1H-naphtho[2,1-f]quinolin-8-yl] 4-[4-[bis(2-chloroethyl)amino]phenyl]butanoate [Ligand 1]
- 6E10 immunoreactivity (mutant APP and Aβ) (mAPP N2a cells [1]): significantly lower; also recorded: significantly reduced
- BACE1 immunoreactivity (mAPP N2a cells [1]): significantly lower; also recorded: significantly reduced
- C-terminal fragment (CTF) immunoreactivity (mAPP N2a cells [1]): significantly lower; also recorded: significantly reduced
- Cell viability (N2a cells [2]): significantly increased
- BACE1 protein level (mAPP N2a cells [3]; ligand 1 treated cells relative to mAPP cells): significantly reduced
- C-terminal fragment C99 protein level (mAPP N2a cells [3]; [6]): significantly decreased; also recorded: significantly reduced
- Fis1 protein level (mAPP N2a cells [3]; [6]): significantly decreased
- C-terminal fragment C83 protein level (mAPP N2a cells [3]; [7]): significantly decreased; also recorded: significantly reduced
- Mfn1 protein level (mAPP N2a cells [3]; [7]): increased
- Mfn1 protein level (mAPP N2a cells [3]; mAPP+ligand 1 relative to mAPP cells, P=0.002, listed as ligand1): significantly increased
- Nrf1 protein level (mAPP N2a cells [3]; [8]): increased
- Nrf2 protein level (mAPP N2a cells [3]; [8]): increased
- Nrf1 protein level (mAPP N2a cells [3]; [9]): significantly increased
- Nrf2 protein level (mAPP N2a cells [3]; [9]): significantly increased
- Drp1 protein level (mAPP N2a cells [3]; mAPP+ligand 1 relative to mAPP cells, P=0.01): significantly decreased
- Opa1 protein level (mAPP N2a cells [3]; [10]): increased
- PGC1α protein level (mAPP N2a cells [3]; [10]): increased
- Opa1 protein level (mAPP N2a cells [3]; [11]): significantly increased
- PGC1α protein level (mAPP N2a cells [3]; [11]): significantly increased
- PSD95 protein level (mAPP N2a cells [3]; [12]): significantly increased
- Synaptophysin protein level (mAPP N2a cells [3]; [12]): significantly increased
- Full-length mutant APP protein level (mAPP N2a cells [3]; mAPP+ligand 1 relative to mAPP cells, P=0.03): significantly decreased; also recorded: significantly reduced
- MAP2 protein level (mAPP N2a cells [3]; mAPP+ligand 1 relative to mAPP cells, P=0.04): significantly increased
- Mfn2 protein level (mAPP N2a cells [3]; [8]): increased
- TFAM protein level (mAPP N2a cells [3]; [8]): increased
- Mfn2 protein level (mAPP N2a cells [3]; [9]): significantly increased
- TFAM protein level (mAPP N2a cells [3]; [9]): significantly increased
- Apoptotic cell death ([4]; mAPP transfected cells): reduced
- Cell viability ([4]; mAPP+ligand 1 compared to mAPP cells, P=0.181): not significantly increased
- Mitochondrial length (N2a cells [5]; cells treated with ligand 1 relative to untreated cells): significantly increased
- Number of mitochondria (N2a cells [5]; mAPP+ligand 1 vs mAPP cells, P=0.01): reduced
